Consider 68 molecules from PubChem BioAssay AID1918986 (Small Molecule Screening Facility, UW Madison, 2023).

Activity calls are given as the source filed them.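 How the source made its calls: active means full-shape inhibition curve with partial efficacy, or partial curve whose IC50 upper confidence bound lies within tested doses; inactive means the rest.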

The target in the assay is Klebsiella pneumoniae PriA-SSB C-terminal tail interaction. Briefly: inhibitors of PriA–SSB C-terminal tail binding, dose response, biochemical, AlphaScreen, virtual screen prioritized set (AID 1918986). The following applies: PriA binding to biotinylated SSBct peptide.
By IC50 is commonly meant the concentration at which inhibition is half-maximal. As to `FC(F)(F)c1cnc(NN=Cc2ccccn2)c(Cl)c1`, the IC50 was 20.2 µM.

Regarding `Clc1cccnc1NN=Cc1ccccn1`, the result was inactive.

Turning to `OCCC(Nc1ccnc2c1ccc1cccnc12)C(F)F` (stereo not drawn), the IC50 is 4.48 µM.

As for `CCOC(=O)c1[nH]c(C)c(C(=O)CSc2cccc3cccnc23)c1C`, the outcome was inactive.

Take `Fc1cccc(CNc2nc(-c3ccccn3)nc3c2CCC3)c1F`: the IC50 was 6.11 µM.

Take `O=[N+]([O-])c1cc(Cl)cc(C=Nc2ccc(Cl)c3ncccc23)c1O`: the result was inactive.

For the molecule `O=[N+]([O-])c1ncn(Cc2cccc3cccnc23)n1`, the outcome was inactive.

Consider `c1cnc2c(SCc3ccn4ncnc4c3)cccc2c1`, for which the outcome was inactive.

For the molecule `Cc1cccc2nc(CSc3cccc4cccnc34)cn12`, the outcome was inactive.

As to `c1cncc(CSCc2cccc3cccnc23)c1`, the outcome was inactive.

With `CSCC(CCO)Nc1ccnc2c1ccc1cccnc12` (stereo not drawn), the IC50 is 10.8 µM.

Consider `Cc1nn(C(C)C)cc1-c1ccc2cccnc2c1C`, for which the outcome was inactive.

For `CC(C)c1ncc(-c2cccc3cccnc23)n1C`, the result was inactive.

For the molecule `O=[N+]([O-])c1ccc(SC2CCCCC2)c2ncccc12`, the IC50 result is “inactive”.

As for `Cc1ccc(-c2nc(SCC(=O)NCc3ccnc(-c4ccccn4)n3)n[nH]2)cc1`, the IC50 was 37.8 µM.

On to `CN(C)CCN(C)c1ccc2ccc3cccnc3c2n1`, for which the outcome was inactive.

Turning to `CC(C)(C)c1ncc(-c2cccc3cccnc23)o1`, the result was inactive.

Regarding `c1cc(CSc2cccc3cccnc23)cc(CN2CCOCC2)c1`, the outcome was inactive.

Take `c1ccc(-c2csc(NC3COC4(CCC4)C3)n2)nc1` (stereo not drawn): the outcome was inactive.

For `c1ccc(-c2nc3c(c(N4CCCC4)n2)CCC3)nc1`, the IC50 was 17.6 µM.

As to `Fc1cccc2[nH]c(-c3ccccn3)nc12`, the outcome was inactive.

As to `O=C(O)c1cc(C(=O)N2CCS(=O)(=O)CC2)ccn1`, the outcome was inactive.

For the molecule `COc1cc([N+](=O)[O-])c(C(=O)Nc2nc(-c3ccccn3)cs2)cc1SC`, the IC50 is 7.02 µM.

For the molecule `Cc1c(N)nc(-c2ccccn2)nc1NCC1CCC(C2CC2)O1` (stereo not drawn), the IC50 is 5.44 µM.

Take `OCCCN(CCO)c1ccc2ccc3cccnc3c2n1`: the outcome was inactive.

As to `OCCCCNc1ccc2ccc3cccnc3c2n1`, the IC50 was 4.33 µM.

In the case of `O=C1CC2(CCOC2)C(C(=O)Nc2nc(-c3ccccn3)cs2)CN1` (stereo not drawn), the IC50 was 12.6 µM.

Take `C1=C(c2cccc3cccnc23)CCNC1`: the outcome was inactive.

For the molecule `C1=C[C@@H](CNc2nc(-c3ccccn3)cs2)[C@H]2CO[C@@H]1C2`, the IC50 was 11.5 µM.

Take `O=C(O)CSc1ccc([N+](=O)[O-])c2cccnc12`: the outcome was inactive.

On to `CC1CCC(=NNc2ccccc2[N+](=O)[O-])CC1` (stereo not drawn), for which the IC50 was 3.64 µM.

For the molecule `CC1CC(Nc2nc(-c3ccccn3)cs2)C1` (stereo not drawn), the half-inhibitory concentration (IC50) is 13.1 µM.

Regarding `CC(C)N(C)S(=O)(=O)c1ccc(F)c(C(=O)Nc2nc(-c3ccccn3)cs2)c1`, the IC50 is 6.82 µM.

Take `Nc1ncc(-c2ccccn2)cn1`: the outcome was inactive.

In the case of `CC1Sc2ccc(C(=O)Nc3nc(-c4ccccn4)cs3)cc2NC1=O` (stereo not drawn), the IC50 was 7.99 µM.

Consider `O=C(Nc1nc(-c2ccccn2)cs1)c1ccc(Cl)c(S(=O)(=O)NCC2CCCO2)c1` (stereo not drawn), for which the IC50 was 10 µM.

Turning to `O[C@@H]1COC[C@@H]1Nc1ccc2ccc3cccnc3c2n1`, the IC50 was 4.26 µM.

For `Cc1ccc(-n2nc(C)cc2NC(=O)CSc2cccc3cccnc23)cc1`, the outcome was inactive.

Take `O=c1[nH]ncc(NN=Cc2ccccn2)c1Cl`: the outcome was inactive.

As for `O=C(CSc1cccc2cccnc12)Nc1cccc(N2CCCC2=O)c1`, the result was inactive.

In the case of `CO[C@H](C)[C@@H](C)Nc1nc(-c2ccccn2)nc2c1CCC2`, the IC50 was 13.9 µM.

Consider `C(=NNc1ncnc2nc[nH]c12)c1ccccn1`, for which the IC50 is 1.29 µM.

Regarding `O=C(Nc1nc(-c2ccccn2)cs1)C1(C2CCCCO2)CCCO1` (stereo not drawn), the outcome was inactive.

Consider `O=C(CN1C(=O)COc2ccc([N+](=O)[O-])cc21)Nc1nc(-c2ccccn2)cs1`, for which the IC50 was 12.4 µM.

On to `Oc1cccnc1SCc1ccc(F)c2cccnc12`, for which the outcome was inactive.

In the case of `c1ccc(-c2cnc3n2CCC3)nc1`, the result was inactive.

As for `Clc1ccc(CN2CCOCCOCC2)c2ncccc12`, the result was inactive.

As to `Cc1cc(-c2ccccn2)n[nH]1`, the result was inactive.

On to `c1ccc(-c2ncc[nH]2)nc1`, for which the IC50 was 15.7 µM.

For the molecule `O=c1[nH]c(NN=Cc2ccccn2)nc2ccccc12`, the outcome was inactive.

As for `c1cnc2c(Cn3ccnc3)cccc2c1`, the result was inactive.

For `CCc1nc(C)c(CSc2cccc3cccnc23)o1`, the outcome was inactive.

Take `CC1CC(Nc2nc(-c3ccccn3)nc3c2CCC3)CC(C)N1` (stereo not drawn): the IC50 was 12.1 µM.

`CCOC(=O)c1c(C)[nH]c(C(=O)CSc2cccc3cccnc23)c1C`: the outcome was inactive.

Consider `Cc1cc(C)cc(OCCN(C)C(=O)CSc2cccc3cccnc23)c1`, for which the outcome was inactive.

Take `CSCC(CCO)Nc1ccc2ccc3cccnc3c2n1` (stereo not drawn): the IC50 is 9.08 µM.

For the molecule `C(=NNc1ncnc2sccc12)c1ccccn1`, the IC50 is 2.68 µM.

With `Clc1cncnc1NN=Cc1ccccn1`, the IC50 was 1.7 µM.

Take `O=C(Cc1ccc(S(=O)(=O)N2CCOCC2)s1)Nc1nc(-c2ccccn2)cs1`: the outcome was inactive.

Consider `CCCN1CCCc2cc(C(C)C)ccc21`, for which the outcome was inactive.

As for `CC1(C)CC(CSc2cccc3cccnc23)=NO1`, the outcome was inactive.

Take `c1cnc2c(SCCn3cncn3)cccc2c1`: the outcome was inactive.

Consider `O=C(O)c1cc(-c2ccccc2)ccn1`, for which the IC50 is 21 µM.

Take `c1cc2c(c(-c3cccc4cccnc34)c1)CNC2`: the outcome was inactive.

With `COC(C)COc1ccc2ccc3cccnc3c2n1` (stereo not drawn), the outcome was inactive.

For `c1ccc(-c2n[nH]c3ccccc23)nc1`, the result was inactive.

Regarding `Cn1ccc(C23CCC(C2)C3C(=O)Nc2nc(-c3ccccn3)cs2)n1` (stereo not drawn), the IC50 was 22.2 µM.

As to `Cc1nc(SCC(=O)Nc2n[nH]c(-c3ccccn3)n2)n[nH]1`, the IC50 is 15.5 µM.
